Counter-ions that a name gives are not always drawn.
Experiment: in vitro release (dissolution) of active ingredient from microcapsules in strongly acidic (pH 1) and weakly acidic (pH 4.5) medium
Format: physicochemical
Details: for release of active ingredient from microcapsules (in words): strongly acidic and weakly acidic medium (pH 1 and 4.5)
From the text: FIG. 1 is a graph depicting percent release as a function of time of an active ingredient from microcapsules prepared by spray solidification in carnauba wax.
FIGS. 2a and 2b are two graphs depicting percent release as a function of time of an active ingredient in, respectively, the hydrate and anhydrate forms.
FIGS. 3a and 3b are two graphs depicting percent release as a function of time of an active ingredient in, respectively, the hydrate and anhydrate forms.
FIGS. 4a and 4b are two graphs depicting percent release as a function of time of an active ingredient in, respectively, the hydrate and anhydrate forms.
FIGS. 5a and 5b are two graphs depicting percent release as a function of time of an active ingredient in, respectively, the hydrate and anhydrate forms.

Structure (SMILES): O=C(O)c1cn(C2CC2)c2cc(N3CCNCC3)c(F)cc2c1=O [ciprofloxacin]
- release of active ingredient from wax-embedded microcapsules (in words) (embedded by method of EP-A-273,890 (carnauba wax, beeswax, ethylcellulose), FIG. 1, spray solidification in carnauba wax): does not lead, however, to the required rapid release of active ingredient
- release of active ingredient from microcapsules (in words) (listed as ciprofloxacin betaine): a rapid release of active ingredient is guaranteed

Structure (SMILES): O=C(O)c1cn(C2CC2)c2cc(N3CCNCC3)c(F)cc2c1=O [ciprofloxacin HCl]
- release of active ingredient from microcapsules (in words): delayed

From patent US6136347A, “Flavor-masked pharmaceutical compositions” (Bayer Aktiengesellschaft, priority 1992, dated 2000)
